The numbers were not newly measured in PubChem BioAssay AID1259410 (Chemical Carcinogenesis Research Information System (CCRIS), 2018), which cites them from elsewhere.

The data set has as its system rodent tumor promotion studies, tumor incidence. The data set is described as follows: CCRIS tumor promotion studies. The conditions noted are these: Route [Promoter]: DERMAL, Species: MOUSE.

With `CCCCCCCCCCCCCC(=O)O[C@@H]1[C@@H](C)[C@@]2(O)[C@@H](C=C(CO)C[C@]3(O)C(=O)C(C)=C[C@@H]23)[C@@H]2C(C)(C)[C@]12OC(C)=O`, the outcome reads like this: (Carcinogen: THIRAM, 137-26-8, Doses [Carcinogen]: 100 MG/KG BW IN 100 µL DMSO ONCE, Doses [Promoter]: 5 UG IN 100 µL ACETONE 3/WK FOR 51 WK BEGINNING 1 WK POST CARCINOGEN DOSE (STUDY DURATION: 52 WK), Route [Carcinogen]: DERMAL, Strain/Sex: SWISS/MALE) “skin: tumor”; (Carcinogen: TRANS-4,5-DIHYDROBENZO[J]FLUORANTHENE-4,5-DIOL, 106542-80-7, Doses [Carcinogen]: 0, 1, 3 UMOL (TOTAL DOSE) IN ACETONE SOLUTION 1/2 D FOR 10 DOSES, Doses [Carcinogen]: 0, 1, 3 UMOL (TOTAL DOSE) IN ACETONE SOLUTION 1/2 D FOR 10 DOSES, Doses [Promoter]: 2.5 UG IN ACETONE 3/WK BEGINNING 10 D POST LAST CARCINOGEN DOSE AND CONTINUING FOR 20 WK (STUDY DURATION: 23 WK), Route [Carcinogen]: DERMAL, Strain/Sex: CD-1/FEMALE) “skin: tumors”; (Carcinogen: TRANS-9,10-DIHYDRO-5,9,10-TRIHYDROXYBENZO[B]FLUORANTHENE, 114451-04-6, Doses [Carcinogen]: 0, 0.04, 0.12, 0.4 UMOL (TOTAL DOSE) APPLIED IN SUBDOSES 1/2 D FOR 5 WK, Doses [Carcinogen]: 0, 0.04, 0.12, 0.4 UMOL (TOTAL DOSE) APPLIED IN SUBDOSES 1/2 D FOR 5 WK, Doses [Promoter]: 2.5 UG IN 100 µL ACETONE 3/WK FOR 20 WK BEGINNING 10 D POST LAST CARCINOGEN DOSE (STUDY DURATION: 26 WK), Route [Carcinogen]: DERMAL, Strain/Sex: CD-1/FEMALE) “skin: tumor”; (Carcinogen: TRANS-9,10-DIHYDRO-6,9,10-TRIHYDROXYBENZO[B]FLUORANTHENE, 114451-05-7, Doses [Carcinogen]: 0, 0.4 UMOL (TOTAL DOSE) APPLIED IN SUBDOSES 1/2 D FOR 5 WK, Doses [Promoter]: 2.5 UG IN 100 µL ACETONE 3/WK FOR 20 WK BEGINNING 10 D POST LAST CARCINOGEN DOSE (STUDY DURATION: 26 WK), Route [Carcinogen]: DERMAL, Strain/Sex: CD-1/FEMALE) “skin: tumor”; (Carcinogen: TRANS-9,10-DIHYDROBENZO[J]FLUORANTHENE-9,10-DIOL, 76479-14-6, Doses [Carcinogen]: 0, 3 UMOL (TOTAL DOSE) IN ACETONE SOLUTION 1/2 D FOR 10 DOSES, Doses [Promoter]: 2.5 UG IN ACETONE 3/WK BEGINNING 10 D POST LAST CARCINOGEN DOSE AND CONTINUING FOR 20 WK (STUDY DURATION: 23 WK), Route [Carcinogen]: DERMAL, Strain/Sex: CD-1/FEMALE) “skin: tumors”; (Carcinogen: VINYL CARBAMATE EPOXIDE, 82617-23-0, Doses [Carcinogen]: 0, 5.8, 11.5 UMOL IN 0.2 ML 15% DMSO 1/WK FOR 5 WK, Doses [Carcinogen]: 0, 5.8, 11.5 UMOL IN 0.2 ML 15% DMSO 1/WK FOR 5 WK, Doses [Promoter]: 0, 2.5 UG IN 0.1 ML ACETONE 18-24 HR PRIOR TO EACH CARCINOGEN DOSE THEN 2/WK FOR DURATION OF STUDY (STUDY DURATION: 22 W, Route [Carcinogen]: DERMAL, Strain/Sex: CD-1/FEMALE) “skin: papilloma”. The outcome (Carcinogen: VINYL CARBAMATE EPOXIDE, 82617-23-0, Doses [Carcinogen]: 1.5, 11.5 UMOL IN 0.2 ML 15% DMSO ONCE, Doses [Promoter]: 0, 2.5 UG IN 0.1 ML ACETONE 18-24 HR PRIOR TO CARCINOGEN DOSE THEN 2/WK FOR DURATION OF STUDY (STUDY DURATION: 22 WK), Route [Carcinogen]: DERMAL, Strain/Sex: CD-1/FEMALE) was “skin: papilloma”; the outcome (Carcinogen: VINYL CARBAMATE, 15805-73-9, Doses [Carcinogen]: 0, 5.8, 11.5 UMOL IN 0.2 ML 15% DMSO 1/WK FOR 5 WK, Doses [Carcinogen]: 0, 5.8, 11.5 UMOL IN 0.2 ML 15% DMSO 1/WK FOR 5 WK, Doses [Promoter]: 0, 2.5 UG IN 0.1 ML ACETONE 18-24 HR PRIOR TO EACH CARCINOGEN DOSE THEN 2/WK FOR DURATION OF STUDY (STUDY DURATION: 22 W, Route [Carcinogen]: DERMAL, Strain/Sex: CD-1/FEMALE) is listed as “skin: papilloma”; the outcome (Carcinogen: VINYL CARBAMATE, 15805-73-9, Doses [Carcinogen]: 1.15, 11.5 UMOL IN 0.2 ML 15% DMSO ONCE, Doses [Promoter]: 0, 2.5 UG IN 0.1 ML ACETONE 18-24 HR PRIOR TO CARCINOGEN DOSE THEN 2/WK FOR DURATION OF STUDY (STUDY DURATION: 22 WK), Route [Carcinogen]: DERMAL, Strain/Sex: CD-1/FEMALE) is reported as “skin: papilloma”; the outcome (Carcinogen: X-RAY, Doses [Carcinogen]: 4.2 GY TO MALE MICE OF THE PARENT GENERATION, Doses [Promoter]: 0, 6.15 UG IN 0.1 ML ACETONE 2/WK FOR 24 WK ADMINISTERED TO F1 OFFSPRING OF IRRADIATED MALES BEGINNING AT 4 MO OF AGE (S, Route [Carcinogen]: WHOLE-BODY IRRADIATION, Strain/Sex: SHR/FEMALE) is “skin: tumor”; the outcome (Carcinogen: X-RAY, Doses [Carcinogen]: 4.2 GY TO MALE MICE OF THE PARENT GENERATION, Doses [Promoter]: 0, 6.15 UG IN 0.1 ML ACETONE 2/WK FOR 24 WK ADMINISTERED TO F1 OFFSPRING OF IRRADIATED MALES BEGINNING AT 4 MO OF AGE (S, Route [Carcinogen]: WHOLE-BODY IRRADIATION, Strain/Sex: SHR/MALE) is given as “skin: tumor”; the outcome (Carcinogen: X-RAY, Doses [Carcinogen]: 4.2 GY TO MALE MICE OF THE PARENT GENERATION, Doses [Promoter]: 0, 6.15 UG IN 0.1 ML ACETONE 2/WK FOR 24 WK ADMINISTERED TO F2 GENERATION OF IRRADIATED MALES BEGINNING AT 4 MO OF AGE (, Route [Carcinogen]: WHOLE-BODY IRRADIATION, Strain/Sex: SHR/FEMALE) is on record as “skin: tumor”. Moreover, the outcome (Carcinogen: X-RAY, Doses [Carcinogen]: 4.2 GY TO MALE MICE OF THE PARENT GENERATION, Doses [Promoter]: 0, 6.15 UG IN 0.1 ML ACETONE 2/WK FOR 24 WK ADMINISTERED TO F2 GENERATION OF IRRADIATED MALES BEGINNING AT 4 MO OF AGE (, Route [Carcinogen]: WHOLE-BODY IRRADIATION, Strain/Sex: SHR/MALE) was “skin: tumor”.
